From patent US20160355530A1, “HEPATITIS C INHIBITORS AND USES THEREOF” (AbbVie Inc., priority 2010, published 2016)
Like-named read-outs stand apart in the source and are kept apart here.

Key:
[1] = test system: chimeric replicon with genotype 3a NS5B; test: microbe, parasite or virus in culture; format: cell-based, HCV genotype 3a; details: Hepatitis C virus, read-out: 3a chimera 5% FBS EC50
[2] = test system: chimeric replicon with genotype 4a NS5B; test: microbe, parasite or virus in culture; format: cell-based, HCV genotype 4a; details: Hepatitis C virus, read-out: 4a chimera 5% FBS EC50
[3] = test system: HCV 1a-H77 subgenomic replicon; test: microbe, parasite or virus in culture; format: cell-based, HCV genotype 1a; details: Hepatitis C virus, stable replicon
[4] = test system: HCV NS5B polymerase 1a-H77-C316Y; test: biochemical; parameters: species or system HCV genotype 1a; details: ratio of enzyme IC50s, 1a H77-C316Y / 1a H77
How it was run: (§1)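 E. coli-expressed NS5B (residues 1-570, His-tagged) transcribed a 2.1 kb HCV 1b negative-strand 3′-end RNA template (5 nM) with 20 μM CTP, 20 μM ATP and 0.284 μM [3H]UTP for 3 h at 30° C. Spermine-precipitated RNA was filter-captured and counted by scintillation; IC50 from nonlinear regression.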

[5] = target: T1, HCV NS5B polymerase 1a-H77 (Hepatitis C virus genotype 1a, UniProt P27958); test: biochemical; parameters: species or system HCV genotype 1a; details: enzyme, strain 1a H77; read-out: HCV Polymerase Strain 1a H77 IC50
T1 construct: six-histidine tag; made in house; host or cells: E. coli
T1 sequence (P27958 2421-2990): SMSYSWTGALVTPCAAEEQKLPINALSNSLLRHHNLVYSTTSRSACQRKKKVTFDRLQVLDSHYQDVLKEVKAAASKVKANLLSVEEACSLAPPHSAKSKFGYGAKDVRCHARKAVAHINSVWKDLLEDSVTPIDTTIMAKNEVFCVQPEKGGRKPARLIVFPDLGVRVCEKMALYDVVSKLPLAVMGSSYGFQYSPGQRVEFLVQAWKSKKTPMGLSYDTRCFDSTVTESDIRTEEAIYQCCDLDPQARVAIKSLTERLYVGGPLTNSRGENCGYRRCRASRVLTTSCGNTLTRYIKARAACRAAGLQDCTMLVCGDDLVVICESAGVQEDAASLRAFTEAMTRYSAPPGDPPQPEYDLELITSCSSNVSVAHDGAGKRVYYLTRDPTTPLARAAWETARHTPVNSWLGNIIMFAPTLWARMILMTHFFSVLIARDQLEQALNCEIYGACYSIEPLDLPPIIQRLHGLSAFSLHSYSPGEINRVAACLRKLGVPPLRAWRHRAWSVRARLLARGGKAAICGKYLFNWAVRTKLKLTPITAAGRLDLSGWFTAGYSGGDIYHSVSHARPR
How it was run: as §1

[6] = target: T2, HCV NS5B polymerase 1a-H77-C316Y (Hepatitis C virus genotype 1a, UniProt P27958, C2736Y); test: biochemical; parameters: species or system HCV genotype 1a
T2 construct: six-histidine tag; made in house; host or cells: E. coli
T2 sequence (P27958 2421-2990 C2736Y): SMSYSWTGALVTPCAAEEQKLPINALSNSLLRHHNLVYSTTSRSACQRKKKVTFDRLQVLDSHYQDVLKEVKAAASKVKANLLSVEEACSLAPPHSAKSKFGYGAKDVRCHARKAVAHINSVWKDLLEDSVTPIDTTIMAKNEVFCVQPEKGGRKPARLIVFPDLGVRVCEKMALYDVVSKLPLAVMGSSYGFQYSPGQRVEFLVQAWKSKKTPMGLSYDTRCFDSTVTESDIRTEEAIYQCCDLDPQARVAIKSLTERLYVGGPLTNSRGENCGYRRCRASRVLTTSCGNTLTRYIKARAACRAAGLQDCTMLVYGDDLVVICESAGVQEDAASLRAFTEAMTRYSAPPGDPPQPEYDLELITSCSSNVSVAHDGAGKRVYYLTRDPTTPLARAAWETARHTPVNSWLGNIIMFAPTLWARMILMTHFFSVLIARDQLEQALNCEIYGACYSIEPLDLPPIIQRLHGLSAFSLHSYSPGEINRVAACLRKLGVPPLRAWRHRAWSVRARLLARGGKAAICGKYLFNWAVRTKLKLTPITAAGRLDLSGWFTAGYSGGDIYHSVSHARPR
How it was run: as §1

[7] = target: T3, HCV NS5B polymerase 1b BK strain (Hepatitis C virus genotype 1b, UniProt P26663); test: HCV NS5B polymerase enzymatic inhibition assay, strain 1b BK; format: biochemical; details: enzyme, strain 1b BK; read-out: HCV Polymerase Strain 1b BK IC50
T3 construct: six-histidine tag; made in house; host or cells: E. coli
T3 sequence (P26663 2420-2989): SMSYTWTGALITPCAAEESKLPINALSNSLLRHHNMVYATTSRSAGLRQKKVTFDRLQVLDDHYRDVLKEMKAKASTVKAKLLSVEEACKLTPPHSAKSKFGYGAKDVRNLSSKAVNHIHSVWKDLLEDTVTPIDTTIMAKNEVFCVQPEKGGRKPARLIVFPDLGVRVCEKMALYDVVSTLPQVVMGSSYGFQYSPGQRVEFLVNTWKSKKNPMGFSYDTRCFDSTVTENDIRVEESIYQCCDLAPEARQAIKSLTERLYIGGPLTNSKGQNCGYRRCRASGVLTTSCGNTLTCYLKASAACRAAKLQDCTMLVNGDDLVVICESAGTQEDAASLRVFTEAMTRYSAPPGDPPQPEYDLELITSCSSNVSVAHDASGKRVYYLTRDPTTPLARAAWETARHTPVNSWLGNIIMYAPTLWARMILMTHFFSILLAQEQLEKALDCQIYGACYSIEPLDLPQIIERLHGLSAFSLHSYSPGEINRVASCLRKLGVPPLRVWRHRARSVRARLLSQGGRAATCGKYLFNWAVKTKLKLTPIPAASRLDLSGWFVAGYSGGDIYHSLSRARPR
How it was run: as §1

[8] = test system: HCV 1a-H77 transient subgenomic replicon in Huh-7 derived cell line; test: microbe, parasite or virus in culture; format: cell-based, HCV genotype 1a; details: Hepatitis C virus, Huh-7; transient replicon, 5% FBS; read-out: Transient Replicon 1a H77 5% FBS EC50
Method: (§2) In addition to the stable replicon inhibition assays, transient replicon assays were performed. Transient replicons are identical to the 1a-H77 and 1a-H77-C316Y constructs, except they lack the Neo gene, making it impossible to establish stable cell lines. A T7 Megascript RNA synthesis kit (Ambion) was used to transcribe the HCV subgenomic RNA. The HCV RNA was then precipitated with lithium chloride according to manufacturer's instructions. The HCV subgenomic replicon RNA was transfected via electroporation into a Huh-7 derived cell line as described (Middleton T, et al. J. Virological Methods 2007; 145(2): 137-145). Transfected cells were diluted and plated in 96 well plates at 5×10^3 cells per well in DMEM. Four hours post-transfection, the wells from one plate were harvested for luciferase measurement. This plate provides a measure of the amount of translatable input RNA, and therefore transfection efficiency. To the wells of the remaining plates, a 3-fold dilution series of test compounds was added in DMSO (0.5% DMSO final concentration), and plates were incubated at 37° C., 5% CO2 in a humidified incubator for 4 days. After this period, the media was removed and the plates were washed with 100 μL phosphate-buffered saline per well. For the luciferase assay, 30 μL of Passive Lysis buffer (Promega) was added to each well, and then the plates were incubated for 15 minutes with rocking to lyse the cells. Luciferin solution (100 μL, Promega) was added to each well, and luciferase activity was measured with a Victor II luminometer (Perkin-Elmer). The EC50 values were calculated using GraphPad Prism 4 software.

[9] = test system: HCV 1a-H77-C316Y transient subgenomic replicon in Huh-7 derived cell line; test: microbe, parasite or virus in culture; format: cell-based, HCV genotype 1a; details: for EC50: Hepatitis C virus, Huh-7, read-out: Transient Replicon 1a H77-C316Y 5% FBS EC50; for Transient Replicon Fold Resistance C316Y/1a: ratio of transient replicon EC50s, C316Y / 1a H77
Method: as §2

[10] = test system: chimeric replicon with 2a-J6CF-derived NS5B; test: microbe, parasite or virus in culture; format: cell-based, HCV genotype 2a; details: Hepatitis C virus, read-out: 2a chimera 5% FBS EC50
[11] = test system: chimeric replicon with genotype 2b NS5B; test: microbe, parasite or virus in culture; format: cell-based, HCV genotype 2b; details: Hepatitis C virus, read-out: 2b chimera 5% FBS EC50
[12] = test system: HCV 1b-BB7 subgenomic replicon; test: microbe, parasite or virus in culture; format: cell-based, HCV genotype 1b; details: Hepatitis C virus, stable replicon
[13] = 5% FBS, absence of human plasma, read-out: Stable Replicon 1a H77 5% FBS EC50
[14] = strain 1a H77, 5% FBS + 40% human plasma, read-out: 1a H77 5% FBS + 40% Human Plasma EC50
[15] = strain 1a H77, 5% FBS, no human plasma, read-out: 1a H77 5% FBS EC50
[16] = strain 1a H77, 5% FBS, read-out: 1a H77 5% FBS EC50
[17] = strain 1b BB7, 5% FBS + 40% human plasma, read-out: 1b BB7 5% FBS + 40% Human Plasma EC50
[18] = strain 1b BB7, 5% FBS, no human plasma, read-out: 1b BB7 5% FBS EC50
[19] = strain 1b BB7, 5% FBS, read-out: 1b BB7 5% FBS EC50

SMILES | EC50 [1] [nM] | EC50 [2] [nM] | EC50 [3, 13] [nM] | EC50 [3, 14] [nM] | EC50 [3, 15] [nM] | EC50 [3, 16] [nM] | C316Y/1a Fold Resistance [4] [fold] | IC50 [5] [nM] | IC50 [6] [nM] | IC50 [7] [nM] | EC50 [8] [nM] | EC50 [9] [nM] | Transient Replicon Fold Resistance C316Y/1a [9] [fold] | EC50 [10] [nM] | EC50 [11] [nM] | EC50 [12, 17] [nM] | EC50 [12, 18] [nM] | EC50 [12, 19] [nM]
Cc1c[nH]c(-c2c(-c3ccc(F)cc3)oc3cc(N(CCCCO)S(C)(=O)=O)c(C4CC4)cc23)n1 [Example 187, N-[5-cyclopropyl-2-(4-fluorophenyl)-3-(4-methyl-1H-imidazol-2-yl)-1-benzofuran-6-yl]-N-(4-hydroxybutyl)methanesulfonamide] | 91.7 | > 1000 | 41.9 | 409 | 41.9 | 41.9 | 6 | 25.8 | 159 | 168 | 28.9 | 128 | 4 | 703 | 1000 | 244 | 63.2 | 63.2
CS(=O)(=O)N(CCCC(N)=O)c1cc2oc(-c3ccc(F)cc3)c(-c3ncc[nH]3)c2cc1C1CC1 [Example 108, 4-{[5-cyclopropyl-2-(4-fluorophenyl)-3-(1H-imidazol-2-yl)-1-benzofuran-6-yl](methylsulfonyl)amino}butanamide] | 11 | 104 | 15.3 | 49 | 15.3 | 15.3 | 17 | 3.5 | 60 | 28 | 7.9 | 203 | 26 | 156 | 187 | 57 | 10.1 | 10.1
CS(=O)(=O)CCCN(c1cc2oc(-c3ccc(F)cc3)c(-c3ncc[nH]3)c2cc1C1CC1)S(C)(=O)=O [Example 101, N-[5-cyclopropyl-2-(4-fluorophenyl)-3-(1H-imidazol-2-yl)-1-benzofuran-6-yl]-N-[3-(methylsulfonyl)propyl]methanesulfonamide] | 4.3 | 56.4 | 4.1 | 110 | 4.1 | 4.12 | 9 | 5 | 46 | 11 | 3.7 | 102 | 28 | 33 | 33.4 | 75 | 5.9 | 5.9
COc1ccc(CN(c2cc3oc(-c4ccc(F)cc4)c(C4=NOCN4)c3cc2C2CC2)S(C)(=O)=O)cc1 [Example 145, N-[5-cyclopropyl-3-(4,5-dihydro-1,2,4-oxadiazol-3-yl)-2-(4-fluorophenyl)-1-benzofuran-6-yl]-N-(4-methoxybenzyl)methanesulfonamide] | 163 | > 1000 | 134 | 1000 | 134 | 134 | 333 | 6 | 2000 | 35 | 100 | 1000 | 10 | 372 | 836 | 1000 | 80 | 80
CC(C)(O)C(O)CCN(c1cc2oc(-c3ccc(F)cc3)c(-c3ncc[nH]3)c2cc1C1CC1)S(C)(=O)=O (stereo not drawn) [Example 84, N-[5-cyclopropyl-2-(4-fluorophenyl)-3-(1H-imidazol-2-yl)-1-benzofuran-6-yl]-N-(3,4-dihydroxy-4-methylpentyl)methanesulfonamide] | 15.1 | 142 | 14.9 | 218 | 14.9 | 14.9 | 12 | 3.5 | 41 | 19 | 25.4 | 184 | 7 | 103 | 30.9 | 146 | 14.1 | 14.1
COc1ccc(CN(c2cc3oc(-c4ccc(F)cc4)c(C4=NOC(C)N4)c3cc2C2CC2)S(C)(=O)=O)cc1 (stereo not drawn) [Example 151, N-[5-cyclopropyl-2-(4-fluorophenyl)-3-(5-methyl-4,5-dihydro-1,2,4-oxadiazol-3-yl)-1-benzofuran-6-yl]-N-(4-methoxybenzyl)methanesulfonamide] | – | – | 119 | 2280 | 119 | 119 | 11 | 9 | 102 | 48 | 33.2 | 2930 | 88 | – | – | 1500 | 30 | 30
CS(=O)(=O)N(Cc1cnc(-c2ccc3[nH]ccc3c2)s1)c1cc2oc(-c3ccc(F)cc3)c(-c3ncc[nH]3)c2cc1C1CC1 [Example 31, N-[5-cyclopropyl-2-(4-fluorophenyl)-3-(1H-imidazol-2-yl)-1-benzofuran-6-yl]-N-{[2-(1H-indol-5-yl)-1,3-thiazol-5-yl]methyl}methanesulfonamide] | – | 84 | 41.6 | 382 | 41.6 | 41.6 | 50 | 3.5 | 172 | 7 | 30.9 | 828 | 27 | 185 | 151 | 201 | 28.4 | 28.4
CC(C)CCN(c1cc2oc(-c3ccc(F)cc3)c(C3=NOCCN3)c2cc1C1CC1)S(C)(=O)=O [Example 10, N-[5-cyclopropyl-3-(5,6-dihydro-4H-1,2,4-oxadiazin-3-yl)-2-(4-fluorophenyl)-1-benzofuran-6-yl]-N-(3-methylbutyl)methanesulfonamide] | 16 | 192 | 10.5 | 134 | 10.5 | 10.5 | – | 7 | 64 | 105 | 6 | 33.5 | 6 | 181 | 303 | 171 | 16.2 | 16.2
